The assay has as its target Steroidogenic factor 1 (Homo sapiens) (UniProt Q13285). Put plainly: blockers of SF-1 LBD reporter transcription – cell-based, CHO-K1, Gal4-SF-1 LBD, luciferase luminescence, dose response (AID 600). Particulars: CHO-K1 Gal4-SF-1 LBD luciferase reporter. For orientation: Reporter assays use an easily measured gene product as a stand-in for the process of interest.

One may read the IC50 as the concentration at which inhibition is half-maximal.

Active and inactive are the calls of the source.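 The calls were made as follows: active = IC50 at or below 10 micromolar; inactive = IC50 above 10 micromolar.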

Sequence of Steroidogenic factor 1 (Homo sapiens) (Q13285 whole entry, looked up, the tested form may be a part): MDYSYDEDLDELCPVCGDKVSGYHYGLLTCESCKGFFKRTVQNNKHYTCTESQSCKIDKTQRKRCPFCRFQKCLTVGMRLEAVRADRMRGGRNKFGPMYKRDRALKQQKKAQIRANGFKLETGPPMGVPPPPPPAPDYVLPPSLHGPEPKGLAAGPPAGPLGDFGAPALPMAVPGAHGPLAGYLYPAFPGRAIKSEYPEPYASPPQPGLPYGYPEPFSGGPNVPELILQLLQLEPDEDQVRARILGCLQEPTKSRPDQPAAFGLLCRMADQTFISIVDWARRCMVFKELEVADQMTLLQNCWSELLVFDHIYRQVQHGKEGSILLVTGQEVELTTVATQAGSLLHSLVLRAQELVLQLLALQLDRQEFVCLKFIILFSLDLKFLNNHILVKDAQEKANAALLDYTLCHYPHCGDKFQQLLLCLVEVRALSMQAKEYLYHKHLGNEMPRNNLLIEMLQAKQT

On to `COc1cc(C2C(C#N)=C(N)Oc3cc(N(C)C)ccc32)cc2c1OCO2` (stereo not drawn), for which the IC50 was > 3.67 µM (inactive).
Next, `COc1cc(C2C(C#N)=C(N)Oc3cc(N)ccc32)cc(OC)c1OC` (stereo not drawn): 7.92 µM; `COC(=O)C1=C(CN2CCCc3ccccc32)NC(=O)NC1c1ccc(F)cc1` (stereo not drawn): 5.34 µM; `O=C(/C=C\Nc1cccc(F)c1)c1ccc2c(c1)OCO2`: 4.65 µM.
Then `CCOC(=O)C1=C(Cn2cnc3ccccc32)NC(=O)NC1c1cc(C)ccc1C` (stereo not drawn), with “inactive”; and `COC(=O)c1ccc(N2C(=O)CC(N3CCC(n4c(=O)[nH]c5ccccc54)CC3)C2=O)cc1` (stereo not drawn), with > 99 µM (inactive); and `O=C(/C=C\Nc1ccccn1)c1ccc(Cl)cc1`, with 6.09 µM.
For the compound `CN(C)c1ccc2c(c1)OC(N)=C(C#N)C2c1cccc(F)c1` (stereo not drawn), the IC50 result is “inactive”.
Then `CC(=O)CC1OC(=O)C(Br)=C1NCc1ccccc1` (stereo not drawn), with > 11 µM (inactive).
As for `O=S(=O)(c1ccc2c(c1)C(=NO)c1cc(S(=O)(=O)N3CCCCC3)ccc1-2)N1CCCCC1`, the IC50 was 1.51 µM.
Regarding `Cc1ccc(C(=O)/C=C/Nc2ccccn2)cc1`, the IC50 is > 11 µM (inactive).
In the case of `N#CC1=C(N)C(C#N)(C#N)[C@H](c2ccncc2)[C@H]2CN(C(=O)OCc3ccccc3)CC=C12`, the IC50 entry is “inactive”.
Then `O=C(/C=C\Nc1ccc2c(c1)OCO2)c1ccccn1`, with “inactive”.
Then `COc1cc(/C=N/O)ccc1OCc1ccc(C(=O)O)cc1`, with 1.16 µM; and `CCOc1ccccc1-n1c(SCC(=O)Nc2ccc(CC)cc2)nc2n[nH]c(C)c2c1=N`, with 5.99 µM; and `CN(C)c1ccc(N/C=C/C(=O)c2ccccc2)cc1`, with > 11 µM (inactive).
Regarding `CCN(CC)c1ccc2c(c1)OC(N)=C(C#N)C2c1cccnc1` (stereo not drawn), the IC50 is > 3.67 µM (inactive).
Next, `CSC1=C(C#N)C(c2ccc(Cl)cc2)C2=C(CC(C)(C)CC2=O)N1` (stereo not drawn): “inactive”.

Source of the values: PubChem BioAssay AID600 (The Scripps Research Institute Molecular Screening Center, 2007).
